# Where “and” joins values, the source holds several entries; their conditions need not be identical. Equal entries are not always repeated.
# Columns and labels:
# Jurkat cell lysate = assay: In-gel fluorescence assay of off-target labelling in Jurkat cells; type: cell-based; conditions: Jurkat cell lysate 2 μg/μL, probe 1 μM
# Procedure: FIG. 5 depicts cellular off-target labelling of the probe 1 shown in Jurkat cells 2.5 million Jurkat cells were incubated with 1 μM probe 1 in the (b) presence or (c) the absence of STS (1 μM) for 6 h. Cells are incubated (a) without and (d) with the probe 1 and STS. Cells comprising labelled enzymes were lysed and analyzed by 12% SDS-PAGE followed by scanning for rhodamine fluorescence (Ex: 561 nm, Em: 605 nm) with a flat-bed laser scanner.
# To rule out that the obtained FRET signal in [FIG. 2b (i)] is not because of random physical interaction between GFPspark and rhodamine dye, MCF-7 cells were transfected with a plasmid encoding for enhanced green fluorescent protein (EGFP). EGFP transfected MCF-7 cells were treated with STS (1 μM) for 4 h, labelled with the probe 1. […] In-gel fluorescence assay was also performed to validate the multiple off-targets labelling of probe 1 which has also been shown in the previous reports. […] The calculated FRET efficiency for (n=15 cells) is 35±1%. […] Caspase-3 activation was also monitored using probe 2 as fABP which is different from probe 1 in terms of peptide recognition sequence; DEVD in exchange for VAD as DEVD peptide sequence is more specific for caspases as compared to VAD. Probe 2 yielded a similar pattern of fluorescence signal in GFPspark, FRET and Rh channel as that of probe 1 [FIG. 7(a)]. The calculated FRET efficiency was 35% [FIG. 7(b)]. […]
# caspase-3 GFPspark = biological target: T1, caspase-3 GFPspark (Homo sapiens, UniProt P42574); assay: AbRGT FRET imaging / acceptor photobleaching, caspase-3 GFPspark in HEK-293 cells; type: cell-based; design: host or cells: HEK-293; conditions: HEK-293, STS 1 μM 10 h, probe 1 μM
# T1 sequence (P42574 29-175 limits assumed): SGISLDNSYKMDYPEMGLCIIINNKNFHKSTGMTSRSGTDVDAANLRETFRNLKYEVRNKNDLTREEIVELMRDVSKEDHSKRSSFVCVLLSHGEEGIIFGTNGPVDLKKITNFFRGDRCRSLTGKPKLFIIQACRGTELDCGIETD
# T1 sequence (P42574 176-277 limits assumed): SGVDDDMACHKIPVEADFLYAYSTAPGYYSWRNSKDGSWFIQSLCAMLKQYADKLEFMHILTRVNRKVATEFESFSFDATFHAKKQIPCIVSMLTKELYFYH
# [1] = biological target: T2, recombinant human caspase-3 His tagged enzyme (rcaspase-3) (Homo sapiens, UniProt P42574); assay: In-gel fluorescence labelling of purified rcaspase-3 by fABP; type: binding
# T2 construct: The purified rcaspase-3 was confirmed with the two peaks obtained at 12939 and 16598 Da; His tag; made in house
# T2 sequence (P42574 29-175 limits assumed): T1 sequence (P42574 29-175 limits assumed)
# T2 sequence (P42574 176-277 limits assumed): T1 sequence (P42574 176-277 limits assumed)
# Procedure: FIG. 4 depicts (a) labelling of purified rcaspase-3 (2 μM) by probe 1 at a concentration of 100, 500 and 2000 nM. (b) integrated band intensity values. (c) The specificity of probe 1 (1 μM) to label active enzyme (500 nM); (lane 1: active rcaspase-3 in the presence of probe 1, lane 2: thermally denatured rcaspase-3 in the presence of probe 1.
# To establish AbRGT, the specific activation of caspase-3 GFPspark was monitored, in the apoptosis signalling pathway, using fABP, Rhodamine-VAD-fluoromethyl ketone (Rh-VAD-FMK) probe (probe 1) (Micale et al., JACS, 2004) [FIG. 2(a)] in MCF-7 cells. Here, rhodamine is the fluorescent tag, VAD is the peptide recognition sequence for caspases and FMK is the reactive warhead for targeting pan-caspases. Before monitoring the specific caspase-3 activation in the native cellular environment, the active-site labelling of probe 1 to the caspase-3 enzyme in in vitro conditions was first validated. The recombinant human caspase-3 His tagged enzyme (rcaspase-3) was expressed and purified using Ni-NTA column chromatography (Stennicke et al., Methods, 1999). […] The labelled enzyme samples were then separated on a 12% SDS-PAGE gel and were visualized using an in-gel fluorescence scanner. […]
# caspase-3 = biological target: T3, caspase-3 (Homo sapiens, UniProt P42574); conditions: previously shown; cited from earlier work
# T3 sequence (P42574 29-175 limits assumed): T1 sequence (P42574 29-175 limits assumed)
# T3 sequence (P42574 176-277 limits assumed): T1 sequence (P42574 176-277 limits assumed)
substance,measurement,setting,value
Rhodamine-VAD-fluoromethyl ketone [probe 1],"off-target labelling, bands on SDS-PAGE gel upon rhodamine excitation",Jurkat cell lysate,multiple bands
same,calculated FRET efficiency,caspase-3 GFPspark,32.5±2% and 33±2%
same,rise in GFP intensity in the ROI,caspase-3 GFPspark,72 a.u.
same,fluorescence signal after thermal denaturation of rcaspase-3 before labelling,"[1]; probe 1 μM, enzyme 500 nM",completely abolished
same,concentration at which probe effectively labelled rcaspase-3,"[1]; rcaspase-3 2 μM, probe 100, 500, 2000 nM, SDS-PAGE in-gel fluorescence",≤ 100 nM
same,affinity for caspase-3,caspase-3,moderate affinity
same,selectivity for caspase-3,caspase-3,low selectivity

# — patent US11834698B2, “Process for determining enzyme activity in a cell by activity-based reporter gene technology (ABRGT)” (INDIAN INSTITUTE OF SCIENCE EDUCATION AND RESEARCH, priority 2018, dated 2023)
